The source of these data is PMC5385487, “Structural insights into the production of 3-hydroxypropionic acid by aldehyde dehydrogenase from Azospirillum brasilense” (Scientific Reports, 2017).

The target of series [1] is T1, AbKGSADH (α-ketoglutarate-semialdehyde dehydrogenase) (Azospirillum brasilense, UniProt Q1JUP4).
T1 construct: gene araE; Met1-Val481 modelled; tetramer about 200 kDa
As to the kind of experiment: X-ray crystal structure, […] Å in Table […] ([…] Å in text). To be noted: NAD-binding site between N- and C-terminal domains.

Series [2] deals with the molecule itself. Kind of series: crystal structure; apo-form and complex with NAD+; space group P4(3)22, two molecules in the asymmetric unit, tetramer generated by crystallographic two-fold symmetry; crystals from 16% PEG 3350, 0.1 M sodium cacodylate pH 6.5, 0.2 M MgCl2, 295 K.

Regarding `NC(=O)c1ccc[n+]([C@@H]2O[C@H](COP(=O)(O)OP(=O)(O)OC[C@H]3O[C@@H](n4cnc5c(N)ncnc54)[C@H](O)[C@@H]3O)[C@@H](O)[C@H]2O)c1` [NAD^+], the “X-ray crystal structure, 2.30 Å in Table 1 (2.6 Å in text)” value in series [1] is listed as “determined the crystal structure of the protein in complex with NAD^+”.

B1: α-ketoglutarate-semialdehyde dehydrogenase from Azospirillum basilensis (AbKGSADH) (enzyme, UniProt Q1JUP4 1-481, looked up)
chain: MANVTYTDTQLLIDGEWVDAASGKTIDVVNPATGKPIGRVAHAGIADLDRALAAAQSGFEAWRKVPAHERAATMRKAAALVRERADAIAQLMTQEQGKPLTEARVEVLSAADIIEWFADEGRRVYGRIVPPRNLGAQQTVVKEPVGPVAAFTPWNFPVNQVVRKLSAALATGCSFLVKAPEETPASPAALLRAFVDAGVPAGVIGLVYGDPAEISSYLIPHPVIRKVTFTGSTPVGKQLASLAGLHMKRATMELGGHAPVIVAEDADVALAVKAAGGAKFRNAGQVCISPTRFLVHNSIRDEFTRALVKHAEGLKVGNGLEEGTTLGALANPRRLTAMASVIDNARKVGASIETGGERIGSEGNFFAPTVIANVPLDADVFNNEPFGPVAAIRGFDKLEEAIAEANRLPFGLAGYAFTRSFANVHLLTQRLEVGMLWINQPATPWPEMPFGGVKDSGYGSEGGPEALEPYLVTKSVTVMAV
notes: α-ketoglutarate-semialdehyde dehydrogenase (KGSADH) of the alternative L-arabinose pathway, Azospirillum brasilense; the limits Met1 and Val481 are those of the domains told for the crystal structure; The vector adds a 6xHis tag and an rTEV protease site at the N-terminus; no cleavage step is described; also called aldehyde dehydrogenase from Azospirillum brasilense; 3-HP producing ALDH; source: …
One may read the stoichiometry N as the number of molecules, sites or subunits per partner or assembly. For B1, the “stoichiometry N” value in series [2] stood at 4.
